Measured values: patent publication US20010039258A1, “Active agent transport systems” (Emisphere Technologies, Inc., priority 1990, published 2001)
Read-outs that look alike come from different tables or passages of the source.

Experiments:
rhGH = rhGH (Homo sapiens, UniProt P01241); assay: Isothermal titration calorimetry of rhGH with perturbants; assay type: binding; conditions: 30° C.
Description: The ability of rhGh to complex with various perturbants was assessed by ITC using a Microcal Omega titrator, usually equilibrated at 30° C. The sample cell of the calorimeter was filled with degassed rhGH (usually at 0.25 mM) prepared in 50 mM phosphate buffer, pH 7.5 or 4.0. The perturbant (cyclohexanoyl chloride modified L-tyrosin (a), salicyloyl modified L-phenylalanine (b), or phenylsulfonyl-para-amino benzoic acid (c)) was then placed in the dropping syringe at 1 mM (for pH 7.5) and 2.5 mM, (for pH 4.0). Twenty to twenty-five 10 μl injections were made into rapidly mixing (400 rpm) solution with 2 minute intervals between injections.
Initial concentration of perturbant placed in the calorimeter sample cell assumed a formula weight of 200 for each perturbant. The pH of each solution was checked after dissolution, but no adjustments of the pH were required. All experiments were performed at 30° C. Initial concentration of rhGh placed in the dropping syringe assumed a molecular weight of 20,000 for rhGh. The pH of each solution was checked after dissolution, but no adjustment of the pH was required.
The heats of reaction were determined by integration of the observed peaks. To correct for heat of mixing and dilution, a control experiment was also performed under identical conditions where aliquots of the test perturbant or rhGh were added to buffer solution only.

α-interferon [1] = target: T1, α-interferon (Homo sapiens, UniProt P01563); assay: Perturbant binding DSC with α-interferon; conditions: α-interferon 0.64 mg/ml, pH 7.2
T1 construct: purchased Schering Plough Corp
Description: Perturbant binding DSC was conducted using 20 mM NaPhosphate buffer at pH 7.2. Dry perturbant was weighed out to make perturbant stock solutions. α-interferon stock was diluted in the buffer. α-interferon solution was not dialyzed prior to experiments for the purpose of having the same active concentration for the whole set.
DSC thermograms were generated with α-interferon at a concentration of 0.64 mg/ml and a perturbant (phenylsulfonyl-para-aminobenzoic acid purified to >98% (as determined by reverse phase chromatography prior to generation of the spectra)) at perturbant concentrations of 5, 10, 25 and 100 mg/ml. DSC was conducted on a DASM-4 differential scanning calorimeter interfaced to an IBM PC for automatic collection of the data. The scanning rate was 60° C./h.
The method of Example 19 was followed substituting α-interferon without perturbant. Results are illustrated in Table 9 below and FIG. 10. […]

α-interferon [2] = target: T1, α-interferon; assay: Isothermal titration calorimetry of perturbant complexing with α-interferon; assay type: binding; conditions: 25° C.; for result of complexing with α-interferon at pH 3: 20 mM NaAc; for n (1), # of complexed perturbant molecules: curve fitting, multiple independent sites
Description: Isothermal titration calorimetry of perturbant complexing with α-interferon was performed at 25° C. at two different pH's. The buffers used were 20 mM NaPhosphate for pH 7.2 and 20 mM NaAc for pH 3.0. α-interferon solution was dialyzed before the experiment to reach the appropriate pH. Dry perturbants were weighed and diluted in dialysate.
ITC was conducted on a MicroCal OMEGA titration calorimeter (MicroCal Inc.—Northampton, Mass.). Data points were collected every 2 seconds, without subsequent filtering. α-interferon solution placed in 1.3625 mL cell was titrated using a 250 μL syringe filled with concentrated perturbant solution. A certain amount of titrant was injected every 3-5 minutes for up to 55 injections.
A reference experiment to correct for the heat of mixing of two solutions, was performed identically except that the reaction cell was filled with buffer without active agent.
Analysis of the data was performed using the software developed at the Johns Hopkins University Biocalorimetry Center.
The titration at pH 7.2 included 53 injections of 2 μL of the perturbant of Example 30 (50 mg/mL=191.6 mM (MW 261)) and α-interferon (1.3 mg/mL=0.067 mM (MW 19400)).
The titration at pH 7.2 included two runs of […] each of 5 μL of perturbant (50 mg/mL=181 mM (FW 277)) and α-interferon (2.31 mg/mL=0.119 mM, (MW 19400)).
ITC was performed according to the method of Example 24 with 40 injections of 5 μL of the perturbant benzoyl para-amino phenylbutyric acid (7.5 mg/mL=24.59 mM, (FW 305)) and α-interferon (2.5 mg/mL=0.129 mM, (MW 19400)).

[3] = DSC of heparin, effect of pH; assay type: physicochemical
Description: All thermograms were performed on a Microcal MC-2 scanning calorimeter equipped with the DA2 data acquisition system operated in the upscale mode at 1° C./min (up to 90° C.), and data points were collected at 20 second intervals. All scans were initiated at least 20 degrees below the observed transitions for the active agent. All thermograms were corrected for baseline subtraction and normalized for the concentration of macromolecule. According to the methods of the Johns Hopkins Biocalorimetry Center, See, for example, Ramsay et al. Biochemistry (1990) 29:8677-8693; Schon et al. Biochemistry (1989) 28:5019-5024 (1990) 29: 781-788. […]
(§1) Thermograms were corrected by subtraction of a heparin 0.05M NaCl-phosphate buffer blank, but an individual blank was not used for each NaCl concentration.

[4] = DSC of heparin, effect of guanidine hydrochloride; assay type: physicochemical
Description: (§2) Scanning calorimetry was performed using 5 mg 0.83 mM porcine insulin (MW 6,000) per mL in 50 mM phosphate buffer, pH 7.5. All thermograms were performed on a Microcal MC-2 scanning calorimeter equipped with the DA2 data acquisition system operated in the upscale mode at 1° C./min (up to 90° C.), and data points were collected at 20 second intervals. All scans were initiated at least 20 degrees below the observed transitions for the active agent. All thermograms were corrected for baseline subtraction and normalized for the concentration of macromolecule. According to the methods of the Johns Hopkins Biocalorimetry Center, See, for example, Ramsay et al. Biochemistry (1990) 29:8677-8693; Schon et al. Biochemistry (1989) 28:5019-5024 (1990) 29: 781-788.
DSC thermograms of heparin at pH 5.0 were conducted according to the method of Example 9 using pH, GuHCl, and ionic strength as perturbants.
as §1

[5] = DSC of heparin, effect of ionic strength; assay type: physicochemical; conditions: pH 7.0
Description: as §2, with “781-788. […]” for “781-788.”
as §1

T1 sequence (P01563 24-188): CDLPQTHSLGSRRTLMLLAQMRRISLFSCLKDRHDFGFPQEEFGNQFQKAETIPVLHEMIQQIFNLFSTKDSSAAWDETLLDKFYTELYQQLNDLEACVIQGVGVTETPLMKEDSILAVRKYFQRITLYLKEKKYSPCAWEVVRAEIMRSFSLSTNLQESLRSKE
Sequence of rhGH (P01241 27-217): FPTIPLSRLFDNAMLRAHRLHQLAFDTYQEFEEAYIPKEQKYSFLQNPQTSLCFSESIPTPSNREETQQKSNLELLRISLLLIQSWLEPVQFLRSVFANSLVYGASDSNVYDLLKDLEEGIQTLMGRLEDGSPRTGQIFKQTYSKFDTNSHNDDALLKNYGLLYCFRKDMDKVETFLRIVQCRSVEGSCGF

`O=C(N[C@@H](Cc1ccccc1)C(=O)O)c1ccccc1O` [B, salicyloyl modified L-phenylalanine] gave a Kd (rhGH; pH 4.0) of 1.61 nM, a ΔH (rhGH; pH 4.0) of -35.6 kcal/mol and a ΔS (rhGH; pH 4.0) of −90.0 eu. The Kd (rhGH; pH 7.5) was 1110 nM, the ΔH (rhGH; pH 7.5) was “+2.1 kcal/mol” and the ΔS (rhGH; pH 7.5) was “+35.0 eu”.

In the case of `O=C(NC(C(=O)O)c1ccccc1)C1CCCCC1` (stereo not drawn) [perturbant of Example 22, cyclohexanoyl phenylglycine], the “Tm of α-interferon” value (α-interferon [1]; perturbant 5 mg/ml) is reported as 63.00 °C, the “ΔH of α-interferon” value (α-interferon [1]; perturbant 5 mg/ml) is reported as 42299 cal/mol and the “Tm of α-interferon” value (α-interferon [1]; perturbant 10 mg/ml) is reported as 59.49 °C. For the same compound, the “ΔH of α-interferon” value (α-interferon [1]; perturbant 10 mg/ml) was 43058 cal/mol, the “Tm of α-interferon” value (α-interferon [1]; perturbant 25 mg/ml) was 52.79 °C and the “ΔH of α-interferon” value (α-interferon [1]; perturbant 25 mg/ml) was 27237 cal/mol. The “ΔH of α-interferon” value (α-interferon [1]; perturbant 100 mg/ml) was 0 cal/mol, the “result of complexing with α-interferon at pH 3” value (α-interferon [2]) was “negative enthalpy” and the “ΔH (1)” value (α-interferon [2]; pH 7.2) was 58.5932 cal/Mole perturbant. The “n (1), # of complexed perturbant molecules” value (α-interferon [2]; pH 7.2) was 121.0354, the Kd (α-interferon [2]; pH 7.2, read-out: binding constant (Kd)) was about 1 mM and the Kd (α-interferon [2]; pH 7.2, read-out: log 10 Ka (1), Ka=association constant (converted)) was 2.99 mM.

Compound Heparin has a ΔH ([3]; pH 6.0) of 232.1 kcal/mol, a ΔHvH ([3]; pH 6.0) of 13.8 kcal/mol and a Tm (Cp, max) ([3]; pH 6.0, 20 μg/ml in 50 mM phosphate) of 62.5 °C. The Tm (Cp, max) ([3]; pH 6.5, (a) domain) was 62.7 °C, the ΔH ([3]; pH 6.5, (a) domain) was 213.9 kcal/mol and the Tm (Cp, max) ([3]; pH 6.5, (b) domain) was 71.8 °C. It also gave a ΔH ([3]; pH 6.5, (b) domain) of 751.9 kcal/mol, a ΔHvH ([3]; pH 6.5, printed in line (b)) of 56.8 kcal/mol and a Tm (Cp, max) ([3]; pH 7.0, (a) domain) of 47.1 °C. For the same compound, the ΔH ([3]; pH 7.0, (a) domain) was 187.1 kcal/mol, the Tm (Cp, max) ([3]; pH 7.0, (b) domain) was 72.9 °C and the ΔH ([3]; pH 7.0, (b) domain) was 136.4 kcal/mol. The ΔHvH ([3]; pH 7.0, printed in line (b)) was 27.6 kcal/mol, the Tm (Cp, max) ([3]; pH 7.5) was 66.2 °C and the ΔH ([3]; pH 7.5) was 499.4 kcal/mol. The ΔHvH ([3]; pH 7.5) was 83.8 kcal/mol, the Tm (Cp, max) ([4]; 0.5M GuHCl) was 50.5 °C and the ΔH ([4]; 0.5M GuHCl) was 287.3 kcal/mol. For the same compound, the ΔHvH ([4]; 0.5M GuHCl) was 170.9 kcal/mol, the Tm (Cp, max) ([4]; 1.0M GuHCl) was 60.5 °C and the ΔH ([4]; 1.0M GuHCl) was 415.0 kcal/mol. The ΔHvH ([4]; 1.0M GuHCl) was 97.1 kcal/mol, the ΔH ([4]; 1.5M GuHCl) was 1716.5 kcal/mol and the ΔHvH ([4]; 1.5M GuHCl) was 24.3 kcal/mol. The ΔH ([4]; 2.0M GuHCl) was 2533.7 kcal/mol, the ΔHvH ([4]; 2.0M GuHCl) was 19.2 kcal/mol and the ΔH ([4]; no GuHCl) was 499.4 kcal/mol. The ΔHvH ([4]; no GuHCl) was 83.8 kcal/mol, the Tm (Cp, max) ([4]; no GuHCl, 50 mM phosphate) was 67.2 °C and the ΔH ([5]; 0.0M NaCl) was 72.9 kcal/mol. It also gave a ΔHvH ([5]; 0.0M NaCl) of 136.4 kcal/mol, a Tm (Cp, max) ([5]; 0.0M NaCl, 20 μg/ml) of 47.1 °C and a Tm (Cp, max) ([5]; 0.25M NaCl) of 46.1 °C. For the same compound, the ΔH ([5]; 0.25M NaCl) was “not present”, the Tm (Cp, max) ([5]; 0.50M NaCl) was 41.6 °C and the ΔH ([5]; 0.50M NaCl) was “not present”. The Tm (Cp, max) ([5]; 0.75M NaCl) was 27.5 °C, the ΔH ([5]; 0.75M NaCl) was “not present” and the “Tm (Cp, max)” value ([5]; 1.0M NaCl) was “no transition observed”.

“cyclohexanoyl chloride modified L-tyrosine” showed a Kd (rhGH; pH 4.0) of 78100 nM, a ΔH (rhGH; pH 4.0) of -1.5 kcal/mol and a ΔS (rhGH; pH 4.0) of −5.6 eu. The Kd (rhGH; pH 7.5) was 98800 nM, the ΔH (rhGH; pH 7.5) was “+1.4 kcal/mol” and the ΔS (rhGH; pH 7.5) was “+23.5 eu”.

In the case of `O=C(O)c1ccc(NS(=O)(=O)c2ccccc2)cc1` [perturbant of Example 19, phenylsulfonyl-para-aminobenzoic acid], the “Tm of α-interferon” value (α-interferon [1]; perturbant 5 mg/ml) is reported as 64.37 °C, the “ΔH of α-interferon” value (α-interferon [1]; perturbant 5 mg/ml) is reported as 60151 cal/mol and the “Tm of α-interferon” value (α-interferon [1]; perturbant 10 mg/ml) is reported as 62.3 °C. For the same compound, the “ΔH of α-interferon” value (α-interferon [1]; perturbant 10 mg/ml) was 53161 cal/mol, the “Tm of α-interferon” value (α-interferon [1]; perturbant 25 mg/ml) was 58.15 °C and the “ΔH of α-interferon” value (α-interferon [1]; perturbant 25 mg/ml) was 35393 cal/mol. The “Tm of α-interferon” value (α-interferon [1]; perturbant 100 mg/ml) was 46.18 °C, the “ΔH of α-interferon” value (α-interferon [1]; perturbant 100 mg/ml) was 5439.3 cal/mol and the “result of complexing with α-interferon at pH 3” value (α-interferon [2]) was “precipitation of the complex out of the solution”. The “log 10 Ka (1), Ka=association constant” value (α-interferon [2]; pH 7.2) was 2.82, the “ΔH (1)” value (α-interferon [2]; pH 7.2) was −114.587 cal/Mole perturbant and the “n (1), # of complexed perturbant molecules” value (α-interferon [2]; pH 7.2) was 55.12. For the same compound, the Kd (rhGH; pH 4.0) was 26.7 nM, the ΔH (rhGH; pH 4.0) was -1.2 kcal/mol and the ΔS (rhGH; pH 4.0) was −30.0 eu. The Kd (rhGH; pH 7.5) was 1.11 nM, the ΔH (rhGH; pH 7.5) was “+0.8 kcal/mol” and the ΔS (rhGH; pH 7.5) was “+44.0 eu”.
